The subject of data set [1] is cardiac fibroblast RAT-iCell-C002. Briefly: Anti-fibrosis activity test: inhibition of proliferation of cardiac fibroblast RAT-iCell-C002 (CCK-8). Format: cell-based. The settings on record: Cardiac fibroblast, 48 h. An outline of the steps:
(§1)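 Read-out: absorbance at 450 nm after 2 h with CCK-8, following 48 h of compound exposure of adhered cells (2×10^4 cells/mL, 24 h attachment, 37° C, 5% CO2). Proliferation inhibition was taken relative to the blank control, and IC50 values were calculated from it.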

The subject of data set [2] is mouse macrophages (RAW264.7). Briefly: Lipopolysaccharide-induced NO secretion in macrophages (Griess). Format: cell-based. The settings on record: Mus musculus, RAW264.7, 24 h, RAW264.7, LPS 1 μg/ml, a/b isomers given as first/second symbol, read-out: IC50 (μM), inhibition of lipopolysaccharide-induced NO secretion in macrophages. An outline of the steps: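 Absorbance at 548 nm after Griess reagent addition to culture supernatant gave NO content; inhibition rate was derived relative to blank control. Cells were mouse RAW264.7 macrophages exposed to compounds and 1 μg/ml LPS for 24 hours.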
(Nitrite, measured by Griess reagent, commonly stands in for NO production.)

Data set [3] relates to human embryonic lung fibroblast IMR-90. Briefly: Anti-fibrosis activity test: inhibition of proliferation of human embryonic lung fibroblast IMR-90 (CCK-8). Format: cell-based. An outline of the steps: as §1
The test system of data set [4] is BHK-21 cells. Briefly: Anti-fibrosis activity test: inhibition of BHK-21 cell proliferation (CCK-8). Format: cell-based. The settings on record: Mesocricetus auratus, BHK-21, 48 h. An outline of the steps:
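Read-out: CCK-8 absorbance at 450 nm after 2 h, giving proliferation inhibition (1−Ai/Ao)×100% versus blank control, from which IC50 was derived. Cells had been treated with compounds for 48 h after 24 h adherence at 37° C. Pirfenidone served as positive control.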

Data set [5] concerns NF-κB. Briefly: Immunological activity test: inhibition of NF-κB activity. Format: cell-based. The conditions noted are these: initial concentration of 30 μM; a/b isomers given as first/second symbol; read-out: IC50 (μM), inhibitory activity against NF-κB. In a few lines: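 IC50 values come from further analysis of the data after an initial test at a single 30 μM concentration. Parthenolide served as the reference inhibitor.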

Data set [6] relates to human hepatic stellate cells LX-2. The data set is described as follows: Anti-fibrosis activity test: inhibition of proliferation of human hepatic stellate cells LX-2 (CCK-8). The conditions noted are these: Homo sapiens, 48 h. Format: cell-based. An outline of the steps: as §1
Data set [7] concerns human lung fibroblasts HFL1. The data set is described as follows: Anti-fibrosis activity test: inhibition of proliferation of human lung fibroblasts HFL1 (CCK-8). The conditions noted are these: Homo sapiens, HFL1, 48 h. It is filed as cell-based. In a few lines:
as §1

Data set [8] has as its system human fibrosarcoma cells HT-1080. Briefly: Anti-fibrosis activity test: inhibition of proliferation of human fibrosarcoma cells HT-1080 (CCK-8). It is filed as cell-based. The settings on record: Homo sapiens, HT-1080, 48 h. In a few lines: as §1
Data set [9] has as its system human dermal fibroblasts CCC-ESF-1. The data set is described as follows: Anti-fibrosis activity test: inhibition of proliferation of human dermal fibroblasts CCC-ESF-1 (CCK-8). Format: cell-based. The settings on record: Fibroblast. An outline of the steps:
as §1

The conditions of data set [10]: pirfenidone, stated as known property; cited from earlier work.
[11] abbreviates: Homo sapiens, IMR-90 cells, 48 h, CCK-8.
Where [12] appears, read: Homo sapiens, CCC-ESF-1 cells, 48 h, CCK-8.

Structures are written as SMILES.

Broadly, the IC50 is the concentration that gives 50% inhibition.

Consider `Cc1ccn2c1-c1c([nH]c3ccccc3c1=O)C2=O` [Compound 797a, 1-Methyl-5H-pyrrolizino[2,1-b]quinoline-5,11(6H)-dione], for which the concentration for half-maximal inhibition (IC50) in [1] (RAT-iCell-C002 cells, CCK-8) lay within 0.05 to 5 mM; in data set [2] it was 1 to 10 µM; in [3] (setting [11]) it was 0.05 to 5 mM; in data set [4] (48 h, CCK-8), 0.05 to 5 mM; in [5], 1 to 10 µM; in data set [6] (LX-2, 48 h, LX-2 cells, CCK-8) it was 0.05 to 5 mM. The IC50 in data set [7] (HFL1 cells, 48 h, CCK-8) lay in the range of 0.05 to 5 mM; in data set [8] (HT-1080 cells, 48 h, CCK-8), 0.05 to 5 mM; in [9] (setting [12]) it was 0.05 to 5 mM.

Take `Cc1ccn2c1-c1c(nc3ccccc3c1O)C2=O` [Compound 797b, 11-hydroxy-1-methyl-5H-pyrrolizino[2,1-b]quinolin-5-one]: the IC50 in [1] (RAT-iCell-C002 cells, CCK-8) lay in the range of 0.05 to 5 mM; in data set [2] it was 1 to 10 µM; in data set [3] (setting [11]) it was 0.05 to 5 mM; in data set [4] (48 h, CCK-8) it was 0.05 to 5 mM; in data set [5], 0.1 to 1 µM; in data set [6] (LX-2, 48 h, LX-2 cells, CCK-8), 0.05 to 5 mM. Besides, the IC50 lay within 0.05 to 5 mM in [7] (HFL1 cells, 48 h, CCK-8); 0.05 to 5 mM in data set [8] (HT-1080 cells, 48 h, CCK-8); 0.05 to 5 mM in data set [9] (setting [12]).

Regarding `Cc1cc2n(c1)C(=O)c1[nH]c3ccccc3c(=O)c1-2` [Compound 798a, 2-Methyl-5H-pyrrolizino[2,1-b]quinoline-5,11(6H)-dione], the IC50 in data set [1] (RAT-iCell-C002 cells, CCK-8) is 0.05 to 5 mM; in data set [2], 1 to 10 µM; in [3] (setting [11]), 0.05 to 5 mM; in [4] (48 h, CCK-8), below 0.05 mM; in data set [5], 1 to 10 µM; in [6] (LX-2, 48 h, LX-2 cells, CCK-8) it was 0.05 to 5 mM. The IC50 in data set [7] (HFL1 cells, 48 h, CCK-8) fell in the range of 0.05 to 5 mM; in data set [8] (HT-1080 cells, 48 h, CCK-8) it was 0.05 to 5 mM; in [9] (setting [12]), 0.05 to 5 mM.

Take `Cc1cc2n(c1)C(=O)c1nc3ccccc3c(O)c1-2` [Compound 798b, 11-hydroxy-2-methyl-5H-pyrrolizino[2,1-b]quinolin-5-one]: the IC50 in [1] (RAT-iCell-C002 cells, CCK-8) was in the range of 0.05 to 5 mM; in [2] it was 1 to 10 µM; in data set [3] (setting [11]), 0.05 to 5 mM; in [4] (48 h, CCK-8), 0.05 to 5 mM; in [5] it was 1 to 10 µM; in data set [6] (LX-2, 48 h, LX-2 cells, CCK-8) it was 0.05 to 5 mM. Moreover, the IC50 in data set [7] (HFL1 cells, 48 h, CCK-8) lay in the range of 0.05 to 5 mM; in data set [8] (HT-1080 cells, 48 h, CCK-8), 0.05 to 5 mM; in data set [9] (setting [12]), 0.05 to 5 mM.

Take `Cc1ccc2n1C(=O)c1[nH]c3ccccc3c(=O)c1-2` [Compound 799a, 3-Methyl-5H-pyrrolizino[2,1-b]quinoline-5,11(6H)-dione]: the IC50 in [1] (RAT-iCell-C002 cells, CCK-8) is 0.05 to 5 mM; in [2], 1 to 10 µM; in data set [3] (setting [11]), 0.05 to 5 mM; in data set [4] (48 h, CCK-8), 0.05 to 5 mM; in data set [5], 1 to 10 µM; in data set [6] (LX-2, 48 h, LX-2 cells, CCK-8), 0.05 to 5 mM. In addition, the IC50 in [7] (HFL1 cells, 48 h, CCK-8) was 0.05 to 5 mM; in data set [8] (HT-1080 cells, 48 h, CCK-8) it was below 0.05 mM; in data set [9] (setting [12]), 0.05 to 5 mM.

Turning to `Cc1ccc2n1C(=O)c1nc3ccccc3c(O)c1-2` [Compound 799b, 11-hydroxy-3-methyl-5H-pyrrolizino[2,1-b]quinolin-5-one], the IC50 in data set [1] (RAT-iCell-C002 cells, CCK-8) was in the range of 0.05 to 5 mM; in data set [2], 1 to 10 µM; in data set [3] (setting [11]), 0.05 to 5 mM; in [4] (48 h, CCK-8), 0.05 to 5 mM; in [5], 1 to 10 µM; in data set [6] (LX-2, 48 h, LX-2 cells, CCK-8), 0.05 to 5 mM. The IC50 in data set [7] (HFL1 cells, 48 h, CCK-8) was 0.05 to 5 mM; in [8] (HT-1080 cells, 48 h, CCK-8), 0.05 to 5 mM; in data set [9] (setting [12]), 0.05 to 5 mM.

Regarding `Cc1ccc(=O)n(-c2ccccc2)c1` [pirfenidone, reference compound], the 50% inhibitory concentration (IC50) in [1] (cardiac fibroblast RAT-iCell-C002, CCK-8, 48 hours) lay in the range of 20 to 100 mM; in [3] (human embryonic lung fibroblast IMR-90, CCK-8, 48 hours), 20 to 100 mM; in [4] (CCK-8, 48 hours after administration), 20 to 100 mM; in [6] (human hepatic stellate cells LX-2, CCK-8, 48 hours), 20 to 100 mM; in [7] (human lung fibroblasts HFL1, CCK-8, 48 hours) it was 5 to 20 mM; in [8] (human fibrosarcoma cells HT-1080, CCK-8, 48 hours), 20 to 100 mM. This compound also came in with an IC50 in data set [9] (human dermal fibroblasts CCC-ESF-1, CCK-8, 48 hours) of 20 to 100 mM. Besides, in data set [10], the phototoxic reactions entry is reported as “phototxic reactions, which are produced by pirfenidone”.

The values are drawn from patent publication US11040028B2, “Penicinotam derivative, preparation method and use thereof” (OCEAN UNIVERSITY OF CHINA, priority 2017, dated 2021).
